Results from patent US6369088B2, “Substituted 3-phenyl-5-alkoxy-1,3,4-oxadiazol-2-ones, their preparation and their use as pharmaceuticals” (Aventis Pharma Deutschland GmbH, priority 2000, dated 2002).
pIC50: −log10 of the molar value. Where a name gives a salt, the structure may show the parent alone.

Assays:
[1] = biological target: T1, hormone-sensitive lipase (HSL) (Rattus norvegicus, UniProt P15304); test: HSL enzyme assay: [3H]trioleoylglycerol hydrolysis by partially purified HSL; type: biochemical; details: partially purified HSL from rat fat cells; [3H]trioleoylglycerol substrate; 37° C., 30 min; read-out: IC50
T1 construct: Isolated rat fat cells were obtained from epididymal adipose tissue; from tissue; host or cells: rat epididymal adipose tissue (isolated fat cells, Wistar rats)
T1 sequence (P15304 1-768 isoform P15304-2): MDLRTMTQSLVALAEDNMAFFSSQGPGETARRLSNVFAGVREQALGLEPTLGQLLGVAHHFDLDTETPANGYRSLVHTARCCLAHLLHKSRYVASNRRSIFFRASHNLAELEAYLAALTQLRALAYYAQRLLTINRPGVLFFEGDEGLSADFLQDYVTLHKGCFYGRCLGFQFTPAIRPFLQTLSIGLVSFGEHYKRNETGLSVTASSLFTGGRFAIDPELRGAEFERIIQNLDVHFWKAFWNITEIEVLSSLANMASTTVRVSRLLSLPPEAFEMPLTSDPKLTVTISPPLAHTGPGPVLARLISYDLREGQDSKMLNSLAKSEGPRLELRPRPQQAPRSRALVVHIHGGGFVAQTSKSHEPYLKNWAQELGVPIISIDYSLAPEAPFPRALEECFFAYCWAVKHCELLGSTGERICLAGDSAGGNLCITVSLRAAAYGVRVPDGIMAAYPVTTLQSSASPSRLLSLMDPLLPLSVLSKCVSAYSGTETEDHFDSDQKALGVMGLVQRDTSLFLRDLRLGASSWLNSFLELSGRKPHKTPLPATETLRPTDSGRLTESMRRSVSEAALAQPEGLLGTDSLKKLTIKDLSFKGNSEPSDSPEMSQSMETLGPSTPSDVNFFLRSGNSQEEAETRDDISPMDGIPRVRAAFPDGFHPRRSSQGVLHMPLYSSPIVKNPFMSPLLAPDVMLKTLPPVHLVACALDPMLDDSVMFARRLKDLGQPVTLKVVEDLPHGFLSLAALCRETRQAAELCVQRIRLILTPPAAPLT
Procedure: The effect of the compounds of the invention on HSL was tested using the following enzyme assay system:
Preparation of Partially Purified HSL:
The fat cells from 10 rats were washed three times by flotation with 50 ml each time of homogenization buffer ([…] tris/HCl, pH 7.4, 0.25 M sucrose, 1 mM EDTA, 1 mM DTT, 10 μg/ml leupeptin, 10 μg/ml antipain, 20 μg/ml pepstatin) and finally taken up in 10 ml of homogenization buffer. The fat cells were homogenized in a Teflon-in-glass homogenizer (Braun-Melsungen) by 10 strokes at 1500 rpm and 15° C. The homogenate was centrifuged (Sorvall SM24 tubes, 5000 rpm, 10 min, 4° C.). The subnatant between the fatty layer at the top and the pellet was removed and the centrifugation was repeated. The subnatant resulting therefrom was recentrifuged (Sorvall SM24 tubes, 20000 rpm, 45 min, 4° C.). […] After the mixture had been incubated at 4° C. for 60 min (shaking at 15-min intervals), it was centrifuged (Sorvall SM24 tubes, 3000 rpm, 10 min, 4° C.). The supernatant was adjusted to pH 5.2 by adding glacial acetic acid and incubated at 4° C. for 30 min. The precipitates were collected by centrifugation (Sorvall SS34, 12000 rpm, 10 min, 4° C.) and suspended in 2.5 ml of 20 mM tris/HCl, pH 7.0,1 mM EDTA, 65 mM NaCl, 13% sucrose, 1 mM DTT, 10 μg/ml leupeptin/pepstatin/antipain. The suspension was dialyzed against 25 mM tris/HCl, pH 7.4, 50% glycerol, 1 mM DTT, 10 μg/ml leupeptin, pepstatin, antipain at 4° C. overnight and then loaded onto a hydroxy apatite column (0.1 g per 1 ml of suspension, equilibrated with 10 mM potassium phosphate, pH 7.0, 30% glycerol, 1 mM DTT). The column was washed with four volumes of equilibration buffer at a flow rate of 20 to 30 ml/h. The HSL was eluted with one volume of equilibration buffer containing 0.5 M potassium phosphate, and then dialyzed (see above) and concentrated 5- to 10-fold by ultrafiltration (Amicon Diaflo PM 10 filter) at 4° C. The partially purified HSL can be stored at −70° C. for 4 to 6 weeks.
To prepare the substrate, 25-50 μCi of [^3H]trioleoylglycerol (in toluene), 6.8 μmol of unlabeled trioleoylglycerol and 0.6 mg of phospholipids (phosphatidylcholine/phosphatidylinositol 3:1 w/v) were mixed, dried with N2 and then taken up in 2 ml of 0.1 M KPi (pH 7.0) by ultrasonic treatment (Branson 250, microtip, setting 1-2, 2×1 min at 1-min intervals). After addition of 1 ml of KPi and renewed ultrasonic treatment (4×30 sec on ice in 30-sec intervals), 1 ml of 20% BSA (in KPi) was added (final concentration of trioleoylglycerol 1.7 mM). For the reaction, 100 μl of substrate solution were pipetted into 100 μl of HSL solution (HSL prepared as above, diluted in 20 mM KPi, pH 7.0, 1 mM EDTA, 1 mM DTT, 0.02% BSA, 20 μg/ml pepstatin, 10 μg/ml leupeptin) and incubated at 37° C. for 30 min. […] After phase separation, one equivalent of the upper phase (1 ml) was removed and the radioactivity was determined by liquid scintillation measurement.
Substances were normally tested in four independent mixtures. The inhibition of the HSL enzymatic activity by a test substance was determined by comparison with an uninhibited control reaction. The IC50 was calculated via an inhibition plot with at least 10 concentrations of the test substance. The data was analyzed using the software package GRAPHIT, Elsevier-BIOSOFT.

melting point | pIC50 [1] | SMILES
99 °C | 6.00 | COc1nn(-c2cccc(OCc3ccc(F)cc3)c2[N+](=O)[O-])c(=O)o1 [Example 22, 5-Methoxy-3-(3-(4-fluorobenzyloxy)-2-nitrophenyl)-3H-(1,3,4)oxadiazol-2-one]
114 °C | 5.22 | COc1nn(-c2ccc(N)c(C)c2)c(=O)o1 [Example 28, 5-Methoxy-3-(4-amino-3-methylphenyl)-3H-(1,3,4)oxadiazol-2-one]
110 °C | 5.52 | CCCCCCCC(=O)Nc1ccc(-n2nc(OC)oc2=O)cc1C [Example 32, 5-Methoxy-3-(4-octanoylamino-3-methylphenyl)-3H-(1,3,4)oxadiazol-2-one]
155 °C | 6.70 | CCCCCCCc1ccc(C(=O)Nc2ccc(-n3nc(OC)oc3=O)cc2)cc1 [Example 33, 5-Methoxy-3-(4-(4-heptylbenzoylamino)phenyl)-3H-(1,3,4)oxadiazol-2-one]
135 °C | 6.00 | CCCCc1ccc(S(=O)(=O)Nc2ccc(-n3nc(OC)oc3=O)cc2)cc1 [Example 34, 5-Methoxy-3-(4-(4-butylphenylsulfonylamino)phenyl)-3H-(1,3,4)oxadiazol-2-one]
147 °C | 6.00 | COc1nn(-c2ccc(NS(=O)(=O)c3ccc(Cl)cc3)c(C)c2)c(=O)o1 [Example 37, 5-Methoxy-3-(4-(4-chlorophenylsulfonylamino)-3-methylphenyl)-3H-(1,3,4)oxadiazol-2-one]
123 °C | 6.00 | COc1nn(-c2ccc(NS(=O)(=O)c3cccc4ccccc34)c(C)c2)c(=O)o1 [Example 38, 5-Methoxy-3-(4-(1-naphthylsulfonylamino)-3-methylphenyl)-3H-(1,3,4)oxadiazol-2-one]
129 °C | 6.00 | COc1nn(-c2ccc(NS(=O)(=O)C=Cc3ccccc3)c(C)c2)c(=O)o1 [Example 39, 5-Methoxy-3-(4-(2-phenylethenylsulfonylamino)-3-methylphenyl)-3H-(1,3,4)oxadiazol-2-one]
210 °C | 6.00 | COc1nn(-c2ccc(NC(=O)Nc3ccc(Cl)c(Cl)c3)c(C)c2)c(=O)o1 [Example 42, 5-Methoxy-3-(4-(3,4-dichlorophenylaminocarbonylamino)-3-methylphenyl)-3H-(1,3,4)oxadiazol-2-one]
143 °C | 6.00 | COc1nn(-c2ccc(NC(C)=CC(C)=O)c(C)c2)c(=O)o1 [Example 53, 5-Methoxy-3-(4-(4-oxopent-2-en-2-ylamino)-3-methylphenyl)-3H-(1,3,4)oxadiazol-2-one]
161 °C | 6.52 | COc1nn(-c2ccc(NC(=O)OCc3ccccc3Cl)c(C)c2)c(=O)o1 [Example 62, 5-Methoxy-3-(3-methyl-4-(2-chlorobenzyloxycarbonylamino)phenyl)-3H-(1,3,4)oxadiazol-2-one]
112 °C | 6.00 | COc1nn(-c2ccc(NC(=O)OCc3ccccc3)cc2C)c(=O)o1 [Example 65, 5-Methoxy-3-(2-methyl-4-benzyloxycarbonylaminophenyl)-3H-(1,3,4)oxadiazol-2-one]
135 °C | 7.70 | CCCCCCCc1ccc(C(=O)Nc2ccc(-n3nc(OC)oc3=O)c(Cl)c2)cc1 [Example 71, 5-Methoxy-3-(2-chloro-4-(4-heptylbenzoylamino)phenyl)-3H-(1,3,4)oxadiazol-2-one]
94 °C | 7.40 | CCOc1nn(-c2ccc(NC(=O)OCc3ccccc3)c(C)c2)c(=O)o1 [Example 74, 5-Ethoxy-3-(3-methyl-4-benzyloxycarbonylaminophenyl)-3H-(1,3,4)oxadiazol-2-one]
 | 6.22 | CCCCCC=CCCCNc1cccc(-n2nc(OC)oc2=O)c1 [Example 171, 3-(3-Dec-4-enylaminophenyl)-5-methoxy-3H-[1,3,4]oxadiazol-2-one trifluoroacetate]
